Data on 6 molecules can be found in patent US11945787B2, “Substituted imidazoles for preventing and/or treating cell or tissue necrosis” (Ela Pharma Ltd, priority 2015, dated 2024).

pIC50: −log10 of the molar value. Where a SMILES comes first, the peptide text is derived from it. The star is where a group is joined. MeOSuc = COC(=O)CCC(=O)*; CH2Cl = ClC*

In one data set the test system is Cathepsin C. The data set can be described thus: Cathepsin C activity in lysates of siRNA-treated cells exposed to KCN. In kind it is cell-based. Particulars: KCN 10 mM 30 minutes; FIG. 5B.
Another data set has as its system U-937 cells. Briefly: siRNA transfection, KCN-induced necrosis of U-937 cells, LDH release. Particulars: U-937, 7 hours KCN; FIG. 4A. In kind it is cell-based, human. In general terms: LDH in the medium is a marker of cell lysis.
The test system of data set [1] is PC12 cells. The data set can be described thus: siRNA transfection, KCN-induced necrosis of PC12 cells, LDH release. In kind it is cell-based, rat. Particulars: PC12, 5 hours KCN; FIG. 4C.
Data set [2] deals with elastase-like activity. Briefly: Elastase-like activity in lysates of siRNA-treated cells exposed to KCN. In kind it is cell-based. Particulars: KCN 10 mM 30 minutes; FIG. 5A.
The test system of data set [3] is C57BL/6J mice, closed head trauma. Briefly: Closed head injury (traumatic brain injury) in mice. In kind it is in vivo, mouse. Particulars: for neurological severity score (NSS): 100 μg into cisterna magna 1 min after trauma, 1 hour post injury; for space of necrotic tissue, TTC staining: 100 μg into cisterna magna, untreated traumatized 50%. As for the experimental part:
The closed head injury method was used to determine the effect of the elastase inhibitor on the development of brain necrosis and on the neurological status assessed using the neurological severity score (NSS). NSS test was performed 1 hour after trauma. During NSS test, various reflexes, ability to move, beam balance, beam walk and other behavior parameters like seeking and exiting from a cycle were monitored. Development of necrosis was measured by assessing necrotic space in brain slices stained with 2,3,5-triphenyl-2H-tetrazolium chloride (TTC).
C57BL/6J mice weighing 40+4 g (mean±SD) were used in the study. A weight-drop device was used to deliver a shock to the scull resulting in a controlled cerebral injury. Impact was delivered by a silicone-coated 5 mm metal tip extruding from a platform that falls down a frame. This model of cranial injury has been used in previous studies [Feldman Z et al., J Neurosurg (1995) 83:1060-1066; Shapira Y et al., J Neurosurg Anesthesiol (1995) 7:17-25].). All animal procedures and care techniques were approved by the Ben-Gurion University of the Negev Committee for the Ethical Care and Use of Animals in Research.
Mice were prepared for surgery by anesthetization with isoflurane and allowed to breathe spontaneously. Maintenance of adequate anesthesia for the experimental procedure was confirmed by loss of corneal reflexes. Once the corneal reflexes were abolished, a midline scalp incision was made and the scalp and underlying muscles were moved laterally. Closed head trauma (CHT) was delivered to the skull over the frontal portion of the left cerebral hemisphere. 1 minute after the trauma 100 μg of elastase inhibitor II or III in its vehicle (DMSO solution), were injected intracerebraspinaly by direct delivery into the cisterna magna. The vehicle itself was previously found to have no effect.
In addition to the wild type C57BL/6J mice, neutrophil elastase knockout mice strain B6.129X1-Elane were also examined. All procedures were approved by the Ethics Committee of Ben-Gurion University of Negev.

Data set [4] deals with PC12 cells. The data set can be described thus: KCN-induced necrosis of PC12 cells, LDH release. In kind it is cell-based, rat. Particulars: for KCN-induced necrotic cell death assessed by LDH release: PC12, KCN 5 hours, FIGS. 6, 7A-B; for inhibition of necrosis induced by KCN at high concentrations / effect of inhibitor by itself on PC-12 cells: up to 300 μM; for effect of inhibitor by itself on PC-12 cells: without KCN. How it is done:
The rat pheochromocytoma PC12 cell line was propagated in DMEM medium (Beit Haemek, Israel), supplemented with 5% heat-inactivated calf serum, 10% heat-inactivated horse serum, 2 mM L-glutamine, 100 U/ml penicillin and 100 μg/ml streptomycin. PC12 cells in logarithmic phase were seeded at a concentration of 1.2×10^5/well in 96-well plates and incubated overnight.
Thereafter, the cells were washed twice and maintained in RPMI-1640 (U-937cells) and DMEM (PC-12 cells) glucose-free medium, supplemented with 2 mM pyruvate and 10% dialyzed FCS for one hour. Then cells were treated with or without KCN (Merck, Germany) at the indicated concentrations for 7 hours (U-937 cells), or for 5 hours (PC12 cells).
Elastase inhibitors II (MeOSuc-AAPA-CMK) and elastase inhibitor III (MeOSuc-AAPV-CMK) were purchased from Calbiochem-Novabiochem, USA. Compound Gly-Phe diazomethylketone was purchased from MP Biomedicals, USA. All the compounds disclosed in Table 1 hereinabove were purchased from ChemDiv, San Diego, CA. The compounds were dissolved in DMSO and were administered 30 min before addition of the cell death inducer. The final concentration of DMSO, added to all samples, was 0.1%, which had no effect by itself siRNA and cell transfection
The amount of LDH released from lysed cells is a sensitive measure of cell death. Necrotic cell death was measured in 96-well plates using Promega CytoTox 96 LDH assay kit. LDH content from the cells lysed in 0.1% Triton X-100 for 10 min was used as an index of total LDH. The LDH released in culture medium was used as an index of necrotic cell death and the percentage from total LDH was calculated. The protection by the inhibitor was calculated based on comparing percentage of LDH release in the presence and in the absence of the inhibitor. The inhibitors were also added to totals, blanks and controls. Absorbance at 490 nm was measured by ELISA reader (BioTec).
These compounds were tested for their ability to inhibit necrosis induced by KCN in PC12 cells. The necrotic mode of cell death in this system was validated as previously described. PC12 cells were challenged with KCN as described above. The protective results of the compounds against KCN-induced necrosis assessed using LDH release method are shown below in Table 5. The IC50 values of these inhibitors is in the range of tens to single nanomolar.

Data set [5] has as its system PC12 cells. The data set can be described thus: Rescue of KCN-treated PC12 cells, XTT viability up to 48 h. In kind it is cell-based, rat. Particulars: 5 h KCN, then full DMEM 24 or 48 hours; FIG. 7C. Background: Formazan colour is commonly taken as a measure of viable cells.
Data set [6] has as its system elastase-like activity. Briefly: Elastase-like activity in lysates of KCN-treated U-937 cells (MAAPV substrate). In kind it is biochemical, human. Particulars: for induction of elastase-like enzymatic activity in intact cells: treatment of intact cells.
Data set [7] concerns C57BL/6J mice, acetaminophen hepatotoxicity. The data set can be described thus: APAP-induced liver toxicity in mice. In kind it is in vivo, mouse. Particulars: IP 4 hours after APAP 300 mg/kg; measured 24 hours; dose dependent. How it is done: Wild type C57BL/6J mice weighing 23+3 grams were used, 6 mice per treatment. The mice were obtained from Harlan (Israel). All animal procedures and care techniques were approved by the Ben-Gurion University of the Negev Committee for the Ethical Care and Use of Animals in Research. Mice were fast for 16h prior to administration of a single intraperitoneal (i. p.) dose of acetaminophen (N-acetyl-p-aminophenol) APAP (300 mg/kg). 4 hours after the APAP injection, the mice were injected i. p. with the tested compound, dissolved in vehicle (20% DMSO in PBS). The control mice were injected with the vehicle only. 24h after APAP injection, the mice were sacrificed and blood collected from the heart. Heparin was used as an anti-clotting additive for plasma collection. The plasma samples were centrifuged at 4000 g at room temperature for 10 min. The supernatant was collected for measurement of ALT and AST levels. The enzyme levels were measured with an autoanalyzer in Soroka's Biochemistry Medical Center.

What is called pIC50 is −log10 of the IC50, conventionally taken in molar units.

Regarding “siRNA for CELA1: siRNA for CELA1, CGGCAACATGCTGGTCCTTTA (SEQ ID NO: 2), Qiagen (listed as DNA, chemistry not given here)”, the “Cathepsin C activity of cell lysates” value with Cathepsin C is listed as “no effect”. Also, the “protection against KCN-induced necrosis, LDH release” value in the data set with U-937 cells is “partial protection”. In addition, in the data set on PC12 cells [1], the “protection against cyanide induced cell death, LDH release” value is reported as “significant protective effect”. In addition, in the data set on elastase-like activity [2], the “elastase-like activity of cell lysates” value is “stable and significant decrease”.
As to “siRNA for Cathepsin C: siRNA for Cathepsin C silencing, ATGATCTGCATCAGTTGTAAA (SEQ ID NO: 1), Qiagen (listed as DNA, chemistry not given here)”, the “Cathepsin C activity of cell lysates” value in the data set on Cathepsin C is “stable and significant decrease”. The “protection against KCN-induced necrosis, LDH release” value with U-937 cells was “protective effect”. Besides, the “protection against cyanide induced cell death, LDH release” value in the data set with PC12 cells [1] is on record as “significant protective effect”.
Take “siRNA for CELA3A: siRNA for CELA3A, CTGCCTTTGGCTGCAACTTCA (SEQ ID NO: 3), Qiagen (listed as DNA, chemistry not given here)”: in the data set on Cathepsin C, the “Cathepsin C activity of cell lysates” value is “no effect”. Moreover, in the data set with U-937 cells, the “protection against KCN-induced necrosis, LDH release” value was “partial protection”. In the data set with PC12 cells [1], the “protection against cyanide induced cell death, LDH release” value is “significant protective effect”. For the same molecule, the “elastase-like activity of cell lysates” value in the data set with elastase-like activity [2] is “stable and significant decrease”.
In the case of `COC(=O)CCC(=O)N[C@@H](C)C(=O)N[C@@H](C)C(=O)N1CCC[C@H]1C(=O)N[C@@H](C)C(=O)CCl` [EI II, MeOSuc-AAPA-CMK] (MeOSuc-AAPA-CH2Cl), in [3], the “neurological severity score (NSS)” value was “significantly reduce neurological damage” and the “space of necrotic tissue, TTC staining” value is listed as 25 % of the damaged hemisphere. Further, in the data set on PC12 cells [4], the “KCN-induced necrotic cell death assessed by LDH release” value is recorded as “inhibited in a dose dependent manner”, the “inhibition of necrosis induced by KCN at high concentrations” value is reported as “significantly inhibited necrosis” and the “effect of inhibitor by itself on PC-12 cells” value is “inactive by themselves”. Besides, in the data set with PC12 cells [5], the “cell viability (XTT) after KCN treatment” value is on record as “protective effect”. For the same molecule, the “induction of elastase-like enzymatic activity in intact cells” value with elastase-like activity [6] is listed as “abrogated the induction”.
As to `O=C(c1csc(N2CCCCC2)n1)N1CCCC1` [Z601-4253, (2-(piperidin-1-yl)thiazol-4-yl)(pyrrolidin-1-yl)methanone], in data set [7], the “ALT level in blood” value is given as “significantly reduced” and the “AST level in blood” value is reported as “significantly reduced”. Moreover, in the data set on PC12 cells [4] (Rattus norvegicus, PC-12, 5 h, 0.1 nM, KCN, PC12, LDH release (Table 5), read-out: % protection at 0.1 nM), the inhibition at 0.0001 µM stood at 29%. Also, the inhibition at 0.001 µM in the data set on PC12 cells [4] (Rattus norvegicus, PC-12, 5 h, 1 nM, KCN, PC12, LDH release (Table 5), read-out: % protection at 1 nM) was determined as 34%. In the data set with PC12 cells [4] (Rattus norvegicus, PC-12, 5 h, 10 nM, KCN, PC12, LDH release (Table 5), read-out: % protection At 10 nM), the inhibition at 0.01 µM came out at 61%. The inhibition at 0.1 µM in the data set on PC12 cells [4] (Rattus norvegicus, PC-12, 5 h, 0.1 μM, KCN, PC12, LDH release (Table 5), read-out: % protection at 0.1 μM) turned out to be 74%. Besides, in the data set on PC12 cells [4] (Rattus norvegicus, PC-12, 5 h, 1 μM, KCN, PC12, LDH release (Table 5), read-out: % protection at 1 μM), the inhibition at 1 µM was 100%.
Consider `COC(=O)CCC(=O)N[C@@H](C)C(=O)N[C@@H](C)C(=O)N1CCC[C@H]1C(=O)N[C@H](C(=O)CCl)C(C)C` [EI III, MeOSuc-AAPV-CMK] (MeOSuc-AAPV-CH2Cl), for which, in data set [3], the “neurological severity score (NSS)” value was “significantly reduce neurological damage” and the “space of necrotic tissue, TTC staining” value is on record as 25 % of the damaged hemisphere. Besides, in the data set with PC12 cells [4], the “KCN-induced necrotic cell death assessed by LDH release” value is on record as “inhibited in a dose dependent manner”, the “inhibition of necrosis induced by KCN at high concentrations” value is given as “significantly inhibited necrosis” and the “effect of inhibitor by itself on PC-12 cells” value was “inactive by themselves”. For the same molecule, in the data set on elastase-like activity [6] (100 μM), the “inhibition of necrosis-induced elastase-like activity” value is listed as “completely inhibited”. Moreover, in the data set with elastase-like activity [6] (100 μM, control cells), the “effect on elastase activity of control cells” value is on record as “slight effect”. Moreover, the pIC50 in the data set with elastase-like activity [6] (lysates after 10 mM KCN 30 min, FIG. 3, read-out: IC50 of inhibition of necrosis-induced elastase-like activity) is 5.56. In the data set on elastase-like activity [6], the “induction of elastase-like enzymatic activity in intact cells” value is given as “abrogated the induction”.
